Experimental data from patent publication US11065211B2, “Isoxylitones mediated neurogenesis” (priority 2018, dated 2021).

System: cortical cells and hippocampal cells
Test: MTT assay, in vitro screening of compounds for cell proliferation activity
Format: cell-based, rat
Conditions: 24 hrs treatment
Source text: The Tetrazolium MTT [3-(4, 5-dimethyl thiazol-2-yl)-2,5-diphenyl tetrazolium bromide] Assay: MTT assay was used to screen various compounds for their proliferating effect on cortical cells and hippocampal cells. The principle of MTT test is based on the ability of live cells to form insoluble purple formazan product from the breakdown of the water soluble yellow tetrazolium salt by mitochondrial enzyme succinate dehydrogenase (Mosmann, 1983). The resulting intracellular purple formazan can quantify by spectrophotometric means. The MTT Cell Proliferation Assay measures the cell proliferation rate and conversely, when metabolic events lead to apoptosis or necrosis, the reduction in cell viability.
The density of the cortical and hippocampal cells was adjusted at the density 2×10^5 cells/mL in complete DMEM medium (5% FBS). The cells (5000/well) were then plated in 96-wells plate and incubated for 24 hrs at 37° C. with 5% CO2. Following 24 hrs incubation, media was removed and 100 μL of each test compounds in DMEM media (5% FBS) were added. […] The culture plates were re-incubated for 24 hrs at 37° C. in 5% CO2. Cells treated with 0.1% DMSO in complete media (5% FBS) were used as vehicle controls. […] The absorbance was read at 495 nm on spectrophotometer. […] The percent rate of proliferation was calculated using the following formula, % rate of proliferation={(At−Ab)/(Ac−Ab)}×100

CC1=CC(=CC(=O)O)CC(C)(C)C1 (mixture of isomers) [acid analog, (E/Z)-2-(3,5,5-trimethylcyclohex-2-enylidene)acetic acid]
activity on the cell proliferation (MTT screening): significant potent activity of isoxylitones followed by acid analog
